Experimental data as given in BigSolDB 2.1.

Conditions: in water

O=C(O)c1ccccc1O
Conditions	solubility (mole fraction)
283.15 K	0.0002
298.15 K	0.000333
307.15 K	0.000441
317.15 K	0.000572
318.15 K	0.000677
320.15 K	0.000672
323.15 K	0.000742
324.15 K	0.000785
325.15 K	0.000847
327.15 K	0.000934
328.15 K	0.000964
330.65 K	0.00111
334.65 K	0.00131
339.15 K	0.00149

O=C(O)c1ccccc1C(=O)O
Conditions	solubility (mole fraction)
283.65 K	0.000284
296.15 K	0.000709
298.15 K	0.000761
302.65 K	0.000935
307.15 K	0.00107
309.15 K	0.00119
311.15 K	0.00126
315.15 K	0.00151
317.15 K	0.00164
318.15 K	0.00164
319.15 K	0.00181
320.15 K	0.00205
323.15 K	0.00223
327.15 K	0.00248
334.15 K	0.00323
338.15 K	0.004

O=C(O)CCCC(=O)O
Conditions	solubility (mole fraction)
279.15 K	0.0734
281.15 K	0.0784
284.15 K	0.085
286.15 K	0.101
289.15 K	0.118
291.15 K	0.129
293.15 K	0.139
298.15 K	0.16
302.15 K	0.189
304.15 K	0.2
307.15 K	0.216
310.15 K	0.236
312.15 K	0.249
316.15 K	0.281
317.15 K	0.287
318.15 K	0.289
320.55 K	0.308
323.15 K	0.327
327.65 K	0.355
329.15 K	0.398
332.15 K	0.419
334.25 K	0.424
336.15 K	0.478
342.15 K	0.537

O=C(O)CCCCCC(=O)O
Conditions	solubility (mole fraction)
279.15 K	0.00204
281.15 K	0.00211
284.15 K	0.00245
289.15 K	0.00417
291.15 K	0.00474
293.15 K	0.00568
297.15 K	0.00738
298.15 K	0.00756
302.15 K	0.00906
304.15 K	0.00994
307.15 K	0.0113
310.15 K	0.0132
313.15 K	0.0186
316.15 K	0.0364
318.15 K	0.0464
320.65 K	0.0584
323.15 K	0.0776
327.98 K	0.14
333.15 K	0.189
337.65 K	0.261
342.15 K	0.328

O=C(O)c1ccco1
Conditions	solubility (mole fraction)
279.15 K	0.00411
280.15 K	0.00414
283.65 K	0.00431
284.15 K	0.00462
285.15 K	0.00471
289.15 K	0.00483
294.15 K	0.00633
298.15 K	0.00796
301.15 K	0.00886
302.15 K	0.0099
307.15 K	0.0125
309.15 K	0.013
311.15 K	0.0154
315.15 K	0.0231
317.15 K	0.0257
319.8 K	0.031
323.15 K	0.0513
325.15 K	0.0664
327.15 K	0.0722
327.65 K	0.074
328.15 K	0.0907
330.65 K	0.128
333.2 K	0.144
334.55 K	0.144
336.15 K	0.199
341.15 K	0.262
